Reference: article PMC10716780, “The multistep oxidation of cholesterol to pregnenolone by human cytochrome P450 11A1 is highly processive” (The Journal of Biological Chemistry, 2023)

Biological target: T1, human P450 11A1 (Homo sapiens, UniProt P05108)
T1 sequence (P05108 41-521 limits assumed): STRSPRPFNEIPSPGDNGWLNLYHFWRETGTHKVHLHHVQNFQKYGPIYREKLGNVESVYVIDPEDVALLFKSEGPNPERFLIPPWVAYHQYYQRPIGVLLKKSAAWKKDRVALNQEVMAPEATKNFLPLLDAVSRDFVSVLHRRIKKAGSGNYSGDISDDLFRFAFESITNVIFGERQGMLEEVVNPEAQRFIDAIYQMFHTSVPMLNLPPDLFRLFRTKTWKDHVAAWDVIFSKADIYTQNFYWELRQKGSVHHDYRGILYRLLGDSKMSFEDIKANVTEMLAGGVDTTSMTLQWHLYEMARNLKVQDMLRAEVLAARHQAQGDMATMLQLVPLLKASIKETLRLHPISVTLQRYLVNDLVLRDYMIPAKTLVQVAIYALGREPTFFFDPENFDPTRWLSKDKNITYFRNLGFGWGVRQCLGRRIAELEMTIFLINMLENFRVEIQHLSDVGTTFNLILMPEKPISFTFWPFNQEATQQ
T1 sequence (P00257 59-186 partner): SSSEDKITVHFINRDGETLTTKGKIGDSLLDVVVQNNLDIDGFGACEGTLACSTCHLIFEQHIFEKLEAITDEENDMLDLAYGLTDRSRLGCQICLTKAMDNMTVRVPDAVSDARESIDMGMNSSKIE
Experiment: Single-turnover kinetics of P450 11A1 with [1,2-3H]-cholesterol (radio-HPLC)
Type: biochemical
Design: M A S T R S P R P F N E I P S P G D N; Met-Ala (N-terminal start residues in place of the transit peptide and Ile40) (N); made in house; host or cells: E. coli (P450 11A1 in C41(DE3); Adx and AdR in E. coli)
Experimental: In this reaction, a 5 μM complex of P450 11A1 and 4.5 μM cholesterol was assembled, and Adx was added at either equimolar (low, 5 μM) or 10-fold excess (high, 50 μM) concentrations (along with 10 μM AdR). The complex was diluted 2-fold (with 5 mM NADPH) in the apparatus to initiate the reaction, which was quenched at variable times. The products of the reaction were extracted and quantified by radio-HPLC. […] (The analysis of kinetic modeling is described below.)
P450 11A1 (5 μM) was reconstituted with its redox partners AdR (10 μM) and Adx (5 μM) on ice (10 min) prior to dilution in potassium Hepes buffer (50 mM, pH 7.4) and H2O and the addition of ^3H-cholesterol substrate (4.5 μM, 0.5 Ci/mmol). The concentration of substrate was deliberately kept slightly below the enzyme concentration to ensure that single-turnover conditions were strictly followed. The mixture (0.75 ml) was preincubated (37 °C, 5 min) in a shaking water bath prior to initiation with an equal volume of NADPH solution (5 mM, from a 10 mM stock in 50 mM potassium Hepes buffer, pH 7.4), thus reducing the concentrations of all enzymes and substrate to one-half their starting concentrations. After completing the desired incubation time, an aliquot (200 μl) was removed from the incubation and added to vials containing aqueous HCl (800 μl, 1 M). The quenched reactions were mixed with a vortex device and placed on ice. When the time course was complete, the quenched reactions were mixed with CH2Cl2 (5 ml) to extract reaction products and were centrifuged (10^3g, 5 min, 23 °C) to separate layers, and the organic (bottom) layers were transferred (4 ml) to fresh glass vials. The extraction process was repeated and the two extracts (2 × 4 ml) from each sample were combined to maximize product recovery. Samples (8 ml) were brought to dryness under a stream of nitrogen, and the dried residues were dissolved in CH3OH (75 μl) and transferred to autosampler vials for analysis by radio-HPLC.
Enzyme and NADPH solutions were prepared as described for the benchtop experiments (above) but with the modification that the concentration of Adx was increased to 50 μM (from 5 μM). […] The rapid quench-flow is a rapid mixing device that combines equal volumes (∼19 μl) of two solutions (P450 and NADPH, held at 37 °C) into a central internal chamber to initiate a reaction. After the preset reaction time is completed, the mixture (∼38 μl) is then rapidly combined with a quench solution (1 M HCl, ∼160 μl), expelled from the apparatus, and collected in vials. Utilizing this experimental design, the reaction of enzyme-substrate complex (P450 11A1-Adx-AdR and ^3H-cholesterol) was initiated with NADPH on a variable timescale (0–90 s), pooling five replicates of each time point to maximize sensitivity. The products of each quenched reaction (∼1 ml) were extracted with two volumes (5 ml) of CH2Cl2, brought to dryness, and dissolved in CH3OH as described for the benchtop experiments.
Samples (held at 4 °C) were injected (50 μl) using a Agilent 1100 Series HPLC system on a NovaPak (Waters) octadecylsilane (C18) 3.9 mm × 100 mm (4 μm) column (held at 25 °C) with a flow rate of 1.0 ml min^−1 using a gradient mobile phase of (A) H2O and (B) CH3CN as follows (all in % B, v/v): 0 min, 70%; 10 min, 100%; 35.5 min, 100%; 37 min, 30%; and 40 min, 70%).

[1] = 10-fold excess (high) Adx, time 0 s
[2] = 10-fold excess (high) Adx, time 0.25 s
[3] = 10-fold excess (high) Adx, time 0.5 s
[4] = 10-fold excess (high) Adx, time 0.75 s
[5] = 10-fold excess (high) Adx, time 1 s
[6] = 10-fold excess (high) Adx, time 2 s
[7] = 10-fold excess (high) Adx, time 2.5 s
[8] = 10-fold excess (high) Adx, time 3.5 s
[9] = 10-fold excess (high) Adx, time 5 s
[10] = 10-fold excess (high) Adx, time 6 s
[11] = 10-fold excess (high) Adx, time 7.5 s
[12] = 10-fold excess (high) Adx, time 10 s
[13] = 10-fold excess (high) Adx, time 15 s
[14] = 10-fold excess (high) Adx, time 20 s
[15] = 10-fold excess (high) Adx, time 30 s
[16] = 10-fold excess (high) Adx, time 45 s
[17] = 10-fold excess (high) Adx, time 60 s
[18] = 10-fold excess (high) Adx, time 90 s
[19] = second table, headed 10-fold excess (high) Adx, time 0 s
[20] = second table, headed 10-fold excess (high) Adx, time 10 s
[21] = second table, headed 10-fold excess (high) Adx, time 25 s
[22] = second table, headed 10-fold excess (high) Adx, time 50 s
[23] = second table, headed 10-fold excess (high) Adx, time 75 s
[24] = second table, headed 10-fold excess (high) Adx, time 100 s
[25] = second table, headed 10-fold excess (high) Adx, time 200 s
[26] = second table, headed 10-fold excess (high) Adx, time 500 s

Structure (SMILES) | concentration in single-turnover reaction [1] | concentration in single-turnover reaction [2] | concentration in single-turnover reaction [3] | concentration in single-turnover reaction [4] | concentration in single-turnover reaction [5] | concentration in single-turnover reaction [6] | concentration in single-turnover reaction [7] | concentration in single-turnover reaction [8] | concentration in single-turnover reaction [9] | concentration in single-turnover reaction [10] | concentration in single-turnover reaction [11] | concentration in single-turnover reaction [12] | concentration in single-turnover reaction [13] | concentration in single-turnover reaction [14] | concentration in single-turnover reaction [15] | concentration in single-turnover reaction [16] | concentration in single-turnover reaction [17] | concentration in single-turnover reaction [18] | concentration in single-turnover reaction [19] | concentration in single-turnover reaction [20] | further results
CC(C)CC[C@@H](O)[C@](C)(O)[C@H]1CC[C@H]2[C@@H]3CC=C4C[C@@H](O)CC[C@]4(C)[C@H]3CC[C@]12C [20R,22R-(OH)2 Chol, (20R,22R)-Cholest-5-ene-3β,20,22-triol] | 0 µM | 0 µM | 0.1366 µM | 0.2407 µM | 0.2278 µM | 0.1672 µM | 0.2051 µM | 0.184 µM | 0.1911 µM | 0.1865 µM | 0.2095 µM | 0.1817 µM | 0.1522 µM | 0.1106 µM | 0.03422 µM | 0 µM | 0 µM | 0 µM | 0 µM | 0.239 µM | concentration in single-turnover reaction [21]: 0.1619 µM; concentration in single-turnover reaction [22]: 0.07194 µM; concentration in single-turnover reaction [23]: 0.04787 µM; concentration in single-turnover reaction [24]: 0 µM; concentration in single-turnover reaction [25]: 0 µM; concentration in single-turnover reaction [26]: 0 µM
CC(C)CC[C@@H](O)[C@@H](C)[C@H]1CC[C@H]2[C@@H]3CC=C4C[C@@H](O)CC[C@]4(C)[C@H]3CC[C@]12C [22R-OH Chol, 22R-hydroxycholesterol] | 0 µM | 0.1665 µM | 0.3411 µM | 0.2577 µM | 0.2098 µM | 0.2144 µM | 0.1649 µM | 0.1652 µM | 0.1576 µM | 0.1666 µM | 0.1648 µM | 0.1591 µM | 0.1351 µM | 0.101 µM | 0.09739 µM | 0.06928 µM | 0.06822 µM | 0.05063 µM | 0 µM | 0.2262 µM | concentration in single-turnover reaction [21]: 0.1763 µM; concentration in single-turnover reaction [22]: 0.1172 µM; concentration in single-turnover reaction [23]: 0.06255 µM; concentration in single-turnover reaction [24]: 0 µM; concentration in single-turnover reaction [25]: 0 µM; concentration in single-turnover reaction [26]: 0 µM
CC(C)CCC[C@@H](C)[C@H]1CC[C@H]2[C@@H]3CC=C4C[C@@H](O)CC[C@]4(C)[C@H]3CC[C@]12C [Cholesterol] | 4.5 µM | 4.334 µM | 4.022 µM | 3.865 µM | 3.748 µM | 3.432 µM | 3.365 µM | 3.113 µM | 2.84 µM | 2.762 µM | 2.508 µM | 1.814 µM | 1.24 µM | 0.9421 µM | 0.6054 µM | 0.4283 µM | 0.3162 µM | 0.26 µM | 4.5 µM | 2.794 µM | time to complete reaction, low Adx (5 μM Adx): 3 min; time to complete reaction, excess Adx (50 μM Adx): 1 min; first-order decay, rate of 22R-hydroxylation (k2), single exponential fit (10-fold (50 μM) excess Adx): 0.09 s⁻¹; concentration in single-turnover reaction [21]: 1.649 µM; concentration in single-turnover reaction [22]: 0.7284 µM; concentration in single-turnover reaction [23]: 0.3322 µM; concentration in single-turnover reaction [24]: 0.1591 µM; concentration in single-turnover reaction [25]: 0 µM; concentration in single-turnover reaction [26]: 0 µM
CC(=O)[C@H]1CC[C@H]2[C@@H]3CC=C4C[C@@H](O)CC[C@]4(C)[C@H]3CC[C@]12C [Pregnenolone] | 0 µM | 0 µM | 0 µM | 0.1368 µM | 0.3142 µM | 0.6865 µM | 0.7647 µM | 1.037 µM | 1.311 µM | 1.385 µM | 1.618 µM | 2.345 µM | 2.973 µM | 3.346 µM | 3.763 µM | 4.002 µM | 4.116 µM | 4.189 µM | 0 µM | 1.241 µM | concentration in single-turnover reaction [21]: 2.512 µM; concentration in single-turnover reaction [22]: 3.582 µM; concentration in single-turnover reaction [23]: 4.057 µM; concentration in single-turnover reaction [24]: 4.341 µM; concentration in single-turnover reaction [25]: 4.5 µM; concentration in single-turnover reaction [26]: 4.5 µM
